# Data reported in US20110105408A1, “THERAPEUTIC PEPTIDES” (INTER-K PTY LIMITED, priority 2008, published 2011).
# “Also recorded” adds a separate entry of the source. No end group written: not given here.
# Experiments:
# [1] = system: MKN45 gastric carcinoma cells; experiment: Cell proliferation (MTT) assay, MKN45 cells; assay type: cell-based; settings: 48 hours incubation
# Description: (§1) Single cell suspensions of viable trypsinised cells were seeded into 96-well tissue culture plates at a density of 2×10^3 cells per well in a volume of 100 μl of a suitable culture media with foetal calf serum (FCS) (e.g., Dulbecco's Modified Eagles Medium (DMEM), with 10% v/v FCS, glutamine, Hepes, and antibiotics). A set of triplicate wells was prepared for each concentration of the peptide dendrimer being tested. Additional sample wells containing untreated cells or media alone were set up in each treatment plate and processed in parallel as reference controls. A zero-time plate of untreated cells and media-alone wells was simultaneously prepared and an MTT assay carried out on this plate at the time of test peptide dendrimer addition to treatment plates. All plates were cultured for 24 hours before addition of the test dendrimer. […] After solubilisation of the salt crystals, a coloured product is produced the measurement of which allows quantitation of the proliferative activity of the cultured cells.
# (§2) Appropriate concentrations of the test dendrimer were prepared by dilution of freshly prepared sterile 1 mM stock solutions into cell culture media to give a final well volume of 200 μl containing 10% v/v FCS. […] Plates were gently vortexed to complete solubilisation of crystalline material and absorbance was read at 540-550 nm using a microplate reader. […]
# [2] = system: MCF-7 breast cancer cells; experiment: Cell proliferation (MTT) assay, MCF-7 cells; assay type: cell-based; settings: 48 hours incubation
# Description: as §1, §2
# [3] = system: DU145 prostate cancer cells; experiment: Cell proliferation (MTT) assay, DU145 cells; assay type: cell-based; settings: 48 hours incubation
# Description: as §1, §2
# [4] = system: phospho-ERK in HT29 cells; experiment: Phospho-ERK ELISA (FACE ERK1/2 kit) in HT29 cells; assay type: cell-based, human
# Description: (§3) HT29 cells were harvested using 0.5% trypsin EDTA (Invitrogen) and 5000 cells were resuspended into 200 μL, and added to each well of a clear NUNC tissue culture treated 96 well plate (NUNC). Cells were seeded in DMEM media (Invitrogen) supplemented with 10% v/v foetal calf serum (FCS, Invitrogen), 1% L-Glutamine (Invitrogen) and 2% 1M HEPES buffer solution (Invitrogen). Cells were then incubated overnight at 37° C. The following day, the growth medium was replaced with 100 μL of serum-free DMEM supplemented with 1% L-glutamine and 2% 1M HEPES buffer solution, and incubated for a further 24 hours at 37° C. Dendrimers were added to test wells in serum free medium to provide final concentrations of the dendrimers ranging from 0.1-20 μLA. The total volume of each well was 200 uL, and cells were incubated at 37° C. for times ranging from 5 minutes to 4 hours. In those studies in which cells were subjected to stimulation by serum, 22 μL FCS (10% v/v final concentration) was added to wells for the final ten minutes of the culture period at 37° C. Serum-free media (SFM) only (22 μL) was added to non-serum stimulated cells.
# Phospho-ERK levels were determined using the FACE ERK1/2 ELISA kit according to the manufacturer's instructions (Active Motif, kit obtained from Australian Biosearch, WA, Australia). Briefly, media was replaced and cells fixed with 4% formaldehyde in PBS, and after a 1 hour with antibody blocking buffer (supplied), the primary phospho-ERK or total-ERK antibody was added and incubated overnight at 4° C. Antibody dilution buffer only was added to control test wells containing no primary antibody. The next day, HRP-conjugated secondary antibody was added for one hour before plates were developed and the absorbance measured at 450 nm using a Labsystems Multiskan EX microplate reader (Labsystems, Thermo Labsystems, UK).
# The effectiveness of the peptide dendrimer IK248 described in Example 2 in inhibiting growth factor mediated activation of ERK in HT29 cancer cells (i.e., (FCS stimulated) compared to various agents comprising the polypeptide RSKAKNPLYR (SEQ ID No. 6) coupled to different peptide facilitator moieties for facilitating passage of the polypeptide across the plasma cell membrane into the cytosol of the cells was evaluated. Phospho-ERK levels in the cells following treatment with 5 μM IK248 (Dend 8) for 1 hour or polypeptide-facilitator moiety agents (each at 5 μM for the same duration) were measured essentially as described in Example 1.3. The facilitator moieties utilised were the signal peptide fragment AAVALLPAVLLALLA (SEQ ID No. 16), the TAT-G peptide GRKKRRQRRRPPQG (SEQ ID No. 17), a modified pentratin sequence Tr-Pen RRQKWKKG (SEQ ID No. 18), and the penetratin peptide RQIKIWFQNRRMKWKKCS—SC (SEQ ID No. 19) wherein S—S indicates a disulphide bridge between the adjacent cysteine residues.
# The peptide RSKAKNPLYR (SEQ ID. No. 6) or peptide dendrimers of the type illustrated in FIG. 3 comprising lysine branching units presenting either 8 (IK248) or 10 (IK248B) monomer units of the peptide RSKAKNPLYR (SEQ ID No. 6) were utilised in this study. Phospho-ERK levels were evaluated by ELISA utilising an Active Motif FACE ERK1/2 ELISA kit (Australian Biosearch, WA, Australia) as described in Example 1.3.
# total ERK in HT29 cells = experiment: Total-ERK ELISA in HT29 cells; assay type: cell-based, human; settings: HT29 cells treated with the dendrimer
# Description: as §3, with “In those studies in which cells were subjected to stimulation by serum, 22 μL FCS (10% v/v final concentration) was added to wells for the final ten minutes of the culture period at 37° C. Serum-free media (SFM) only (22 μL) was added to non-serum stimulated cells.” left out
# Phospho-ERK levels were determined using the FACE ERK1/2 ELISA kit according to the manufacturer's instructions (Active Motif, kit obtained from Australian Biosearch, WA, Australia). […] The next day, HRP-conjugated secondary antibody was added for one hour before plates were developed and the absorbance measured at 450 nm using a Labsystems Multiskan EX microplate reader (Labsystems, Thermo Labsystems, UK).
# HT29 colon cancer cells [5] = experiment: Cell proliferation (MTT) assay, HT29 cells; assay type: cell-based, human; settings: 24 hour incubation period
# HT29 colon cancer cells [6] = experiment: Cell proliferation (MTT) assay, HT29 cells; assay type: cell-based, human; settings: for inhibition of proliferation of HT29 cells (MTT): 48 hours culture with dendrimer
# Description: Single cell suspensions of viable trypsinised cells were seeded into 96-well tissue culture plates at a density of 2×10^3 cells per well in a volume of 100 μl of a suitable culture media with foetal calf serum (FCS) (e.g., Dulbecco's Modified Eagles Medium (DMEM), with 10% v/v FCS, glutamine, Hepes, and antibiotics). A set of triplicate wells was prepared for each concentration of the peptide dendrimer being tested. Additional sample wells containing untreated cells or media alone were set up in each treatment plate and processed in parallel as reference controls. A zero-time plate of untreated cells and media-alone wells was simultaneously prepared and an MTT assay carried out on this plate at the time of test peptide dendrimer addition to treatment plates. All plates were cultured for 24 hours before addition of the test dendrimer. To prepare the MTT solution 100 mg of MTT (3-(4,5-dimethylthiazolyl-2)-2,5-diphenyltetrazolium bromide) (Cat #. M-128, Sigma, St Louis Mo.), is mixed with 20 ml of PBS at pH 7.4. The resulting solution is filter sterilized (0.2 μM syringe filter) and stored at 4° C. protected from light until use. MTT substrate is cleaved in growing cells to yield a water insoluble salt. After solubilisation of the salt crystals, a coloured product is produced the measurement of which allows quantitation of the proliferative activity of the cultured cells.
# Appropriate concentrations of the test dendrimer were prepared by dilution of freshly prepared sterile 1 mM stock solutions into cell culture media to give a final well volume of 200 μl containing 10% v/v FCS. The zero-plate was processed by addition of MTT at this time. Cell culture was continued for a further 24 or 48 hours before addition of 20 μl of MTT in PBS (5 mg/ml, 0.2 um filter sterilised). The MTT cell proliferation assay measures cell proliferation rate and, in instances where cell viability is compromised, the assay indicates a comparative reduction in cell viability. After a 3 hour incubation in the presence of MTT (5% CO2 in air at 37° C.), plates were centifuged at 450 g for 5 minutes, supernatant removed by gentle suction and precipitated tetrazolium salt resuspended into 150 μl DMSO:glycine (0.1 M glycine, 0.1 M NaCl pH 10.5) (6:1 v/v) solution. Plates were gently vortexed to complete solubilisation of crystalline material and absorbance was read at 540-550 nm using a microplate reader. Sample data were processed to determine the comparative growth of treated samples relative to untreated controls.
# HT29 cells were cultured for 48 hours in the presence of selected dendrimers and proliferation of the cells was assessed by MTT assay essentially as described in Example 1.2. The results were calculated as percentage proliferation of control cells (not treated with dendrimer).
compound,measurement,setting,value
CC(C)C[C@H](NC(=O)[C@@H]1CCCN1C(=O)[C@H](CC(N)=O)NC(=O)[C@H](CCCCN)NC(=O)[C@H](C)NC(=O)[C@H](CCCCN)NC(=O)[C@H](CO)NC(=O)[C@@H](N)CCCNC(=N)N)C(=O)N[C@@H](Cc1ccc(O)cc1)C(=O)N[C@@H](CCCNC(=N)N)C(=O)NCCCC[C@H](NC(=O)[C@H](CCCNC(=N)N)NC(=O)[C@H](Cc1ccc(O)cc1)NC(=O)[C@H](CC(C)C)NC(=O)[C@@H]1CCCN1C(=O)[C@H](CC(N)=O)NC(=O)[C@H](CCCCN)NC(=O)[C@H](C)NC(=O)[C@H](CCCCN)NC(=O)[C@H](CO)NC(=O)[C@@H](N)CCCNC(=N)N)C(=O)NCCCC[C@H](NC(=O)[C@H](CCCCNC(=O)[C@H](CCCNC(=N)N)NC(=O)[C@H](Cc1ccc(O)cc1)NC(=O)[C@H](CC(C)C)NC(=O)[C@@H]1CCCN1C(=O)[C@H](CC(N)=O)NC(=O)[C@H](CCCCN)NC(=O)[C@H](C)NC(=O)[C@H](CCCCN)NC(=O)[C@H](CO)NC(=O)[C@@H](N)CCCNC(=N)N)NC(=O)[C@H](CCCNC(=N)N)NC(=O)[C@H](Cc1ccc(O)cc1)NC(=O)[C@H](CC(C)C)NC(=O)[C@@H]1CCCN1C(=O)[C@H](CC(N)=O)NC(=O)[C@H](CCCCN)NC(=O)[C@H](C)NC(=O)[C@H](CCCCN)NC(=O)[C@H](CO)NC(=O)[C@@H](N)CCCNC(=N)N)C(=O)NCCCC[C@H](NC(=O)[C@H](CCCCNC(=O)[C@H](CCCCNC(=O)[C@H](CCCNC(=N)N)NC(=O)[C@H](Cc1ccc(O)cc1)NC(=O)[C@H](CC(C)C)NC(=O)[C@@H]1CCCN1C(=O)[C@H](CC(N)=O)NC(=O)[C@H](CCCCN)NC(=O)[C@H](C)NC(=O)[C@H](CCCCN)NC(=O)[C@H](CO)NC(=O)[C@@H](N)CCCNC(=N)N)NC(=O)[C@H](CCCNC(=N)N)NC(=O)[C@H](Cc1ccc(O)cc1)NC(=O)[C@H](CC(C)C)NC(=O)[C@@H]1CCCN1C(=O)[C@H](CC(N)=O)NC(=O)[C@H](CCCCN)NC(=O)[C@H](C)NC(=O)[C@H](CCCCN)NC(=O)[C@H](CO)NC(=O)[C@@H](N)CCCNC(=N)N)NC(=O)[C@H](CCCCNC(=O)[C@H](CCCNC(=N)N)NC(=O)[C@H](Cc1ccc(O)cc1)NC(=O)[C@H](CC(C)C)NC(=O)[C@@H]1CCCN1C(=O)[C@H](CC(N)=O)NC(=O)[C@H](CCCCN)NC(=O)[C@H](C)NC(=O)[C@H](CCCCN)NC(=O)[C@H](CO)NC(=O)[C@@H](N)CCCNC(=N)N)NC(=O)[C@H](CCCNC(=N)N)NC(=O)[C@H](Cc1ccc(O)cc1)NC(=O)[C@H](CC(C)C)NC(=O)[C@@H]1CCCN1C(=O)[C@H](CC(N)=O)NC(=O)[C@H](CCCCN)NC(=O)[C@H](C)NC(=O)[C@H](CCCCN)NC(=O)[C@H](CO)NC(=O)[C@@H](N)CCCNC(=N)N)C(=O)NCCC(N)=O [IK248],inhibition of growth/proliferation of MKN45 gastric carcinoma cells,[1],inhibited growth/proliferation
same,inhibition of growth/proliferation of MCF-7 breast cancer cells,[2],inhibited growth/proliferation
same,inhibition of growth/proliferation of DU145 prostate cancer cells,[3],inhibited growth/proliferation
same,greater inhibition of activated phospho-ERK than the closest test agent (TAT-G RSKAKNPLYR),"[4]; 5 μM, 1 hour, FCS stimulated HT29 cells",at least 30%
same,inhibition of activated phospho-ERK,"[4]; 5 μM, 4 hours, FCS stimulated HT29 cells (data not shown)",approx. 95%
same,phospho-ERK level in FCS stimulated cells,"[4]; HI FCS stimulated, 20 μM, 1 hour incubation","lower than in non-FCS stimulated cells treated with the dendrimer, but remained higher than phospho-ERK basal levels in control cells not treated with the dendrimer"
same,basal phospho-ERK level relative to control cells,"[4]; not FCS stimulated, 1 μM-10 μM, 4 hr incubation",incease relative to control cells
same,"basal phospho-ERK level compared to control cells, time course","[4]; not FCS stimulated, 5 μM, 5, 10 and 30 minutes, and 1 hour",markedly increased phospho-ERK levels at all time points evaluated
same,total ERK levels,total ERK in HT29 cells,remained essentially unaffected
same,inhibition of proliferation of HT29 colon cancer cells (MTT),HT29 colon cancer cells [5],inhibit proliferation of HT29 colon cancer cells; also recorded: substantially more effective at inhibiting cell growth/proliferation than the peptide dendrimer comprising 4 monomers of the polypeptide
Dend8 β3: peptide dendrimer presenting 8 monomer units of the β3 based peptide RARAKNPLYK (SEQ ID No. 7) (also: dendrimer of 8 peptide copies),inhibition of proliferation of HT29 cells (MTT),HT29 colon cancer cells [6],inhibited proliferation of the HT29 cancer cells
Dend8 β5: peptide dendrimer presenting 8 monomer units of the β5 based peptide RSRARNPLYR (SEQ ID No. 8) (also: dendrimer of 8 peptide copies),inhibition of proliferation of HT29 cells (MTT),HT29 colon cancer cells [6],inhibited proliferation of the HT29 cancer cells; also recorded: more effective
Dend 4: peptide dendrimer comprising 4 monomer units of the polypeptide RSKAKNPLYR (SEQ ID No. 6) (also: dendrimer of 4 peptide copies),inhibition of proliferation of HT29 colon cancer cells (MTT),HT29 colon cancer cells [5],inhibit proliferation of HT29 colon cancer cells
Dend 9 10(4): dendrimer presenting 9 monomer units of the peptide RSKAKNPLYR (SEQ ID No. 6) (also: dendrimer of 9 peptide copies),inhibition of proliferation of HT29 cells (MTT),HT29 colon cancer cells [6],Dend 12 was more effective than Dend 9
dendrimer presenting 12 monomer units of the peptide RSKAKNPLYR (SEQ ID No. 6) (also: dendrimer of 12 peptide copies) [Dend 12 10(4)],inhibition of proliferation of HT29 cells (MTT),HT29 colon cancer cells [6],more effective than Dend 9
same,IC50,"HT29 colon cancer cells [6]; 48 hours, MTT",1000 nM
same,dendrimer concentration required for total kill,"HT29 colon cancer cells [6]; HT29 cells, 48 hours, MTT",10 µM
